Marks after values point to notes of the source that are not given here.
Experiments:
[1] = test system: conscious male adult Sprague-Dawley rats; test: Plethysmographic ventilatory responses to test compounds in conscious rats; format: in vivo, rat; settings: 500 μmol/kg, i.v., FIG. 2
[2] = test system: freely moving adult male Sprague-Dawley rats; test: Whole-body plethysmography of ventilatory parameters in morphine-treated rats
Method: Permissions, rats, surgical procedures and blinding of protocols. All studies were carried out in accordance with the NIH Guide for the Care and Use of Laboratory Animals (NIH Publication No. […]) revised in 1996. The protocols were approved by the Animal Care and Use Committees of the University of Virginia, Case Western Reserve University and Loma Linda University. In addition, all studies were carried out in compliance with the ARRIVE (Animal Research: Reporting of In Vivo Experiments) guidelines. Adult male Sprague-Dawley rats (Harlan, Madison, WI, USA) were implanted with jugular vein catheters under 2% isoflurane anesthesia and some rats received femoral arterial catheters. The rats were allowed at least four days to recover from surgery before use. All arterial catheters were flushed daily with heparin solution (50 units of heparin in phosphate-buffered saline at 0.1 M, pH 7.4). All catheters were flushed with phosphate-buffered saline (0.1 M, pH 7.4) approximately four hours before commencement of the experiments. All studies were performed in a quiet laboratory with relative humidity of 49±2% and room temperature of 21.4±0.2° C. […] Also, please note that the antinociception and ventilatory studies were done in separate groups of rats so as to not complicate the respiratory measurements. The recording (plethysmography, antinociception) sessions and the arterial blood gas assays were done by a particular investigator who administered the opioid, vehicle or test drug such as d-cystine diME. The syringes containing the vehicle or test drug were made up by another investigator, such that the investigator running the actual experiment was blinded to the treatment protocol. In every case, the data files resulting from a particular study were first collated and analyzed by another investigator in the group.
Ventilatory parameters were recorded in freely moving rats by whole body plethysmography (PLY3223; Data Sciences International, St. Paul, MN). The rats were placed in individual chambers and given 60 min to acclimatize to allow true resting ventilatory parameters to be established. […] The rats received another injection of vehicle or 1-NACme (500 μmol/kg, IV) 15 min later and ventilatory parameters were recorded for a further 60 min.
The provided software (Fine Pointe, BUXCO) constantly corrected digitized values for changes in chamber temperature and humidity. Pressure changes associated with the respiratory waveforms were then converted to volumes (i.e., TV, PIF and PEF) using the algorithm of Epstein and colleagues. Specifically, factoring in chamber temperature and humidity, the cycle analyzers filtered the acquired signals, and BUXCO algorithms (Fine Pointe) generated an array of box flow data that identified a waveform segment as an acceptable breath. From that data vector, the minimum and maximum values were determined. Flows at this point were considered to be “box flow” signals.
The recorded data (1 min bins) and derived parameters, Vt/Ti and Response Area (cumulative percent changes from pre-values) were taken for statistical analyses. The pre-drug 1 min bins excluded occasional marked deviations from resting due to movements or scratching by the rats. These exclusions ensured accurate determinations of baseline parameters. The data are presented as mean±SEM. All data unless other-wise stated (see immediately below) were analyzed by one-way or two-way analysis of variance followed by Student's modified t test with Bonferroni corrections for multiple comparisons between means using the error mean square terms from each ANOVA. A value of P<0.05 denoted the initial level of statistical significance that was modified according to the number of comparisons between means.

freely moving rats [3] = test: Arterial blood-gas chemistry and A-a gradient in morphine-treated rats; format: in vivo, rat; settings: for deleterious actions of morphine on ABG chemistry and A-a gradient: bolus 500 μmol/kg i.v. after morphine 10 mg/kg i.v., Example 1; for deleterious effects of morphine on ABG chemistry and A-a gradient after prior infusion: prior infusion 14.3 μmol/kg/min, total 500 μmol/kg i.v. over 35 min, morphine 10 mg/kg i.v.
conscious rats = test: Morphine-induced analgesia (paw withdrawal latency assay), Example 1; format: in vivo, rat; settings: pretreatment 500 μmol/kg i.v.; morphine 5 mg/kg i.v.
freely moving rats [4] = test: Tail-flick latency (TFL) test; format: in vivo, rat
rats = test: Hemodynamics (preliminary toxicology); format: in vivo, rat; settings: 500 μmol/kg, i.v.
From the text: FIGS. 11(A-C) illustrate plots showing the effects of test agents (500 μmol/kg, i.v.) on hemodynamic variables. Data are presented mean±SEM (n=8 rats per group).

adult male rats [5] = test: Hargreaves Hind-paw Latency Test, morphine 1 mg/kg; format: in vivo, rat; settings: for Hargreaves hind-paw withdrawal latency: FIG. 24 study
adult male rats [6] = test: Von Frey Test, morphine 1 mg/kg; format: in vivo, rat; settings: for force needed to initiate hind-paw withdrawal (Von Frey): FIG. 25 study
[7] = two injections of L-NACme 500 μmol/kg IV after morphine 10 mg/kg IV
[8] = 500 μmol/kg IV with morphine sulfate 1.0 mg/kg IV
[9] = 500 μmol/kg IV, tested 20 to 30 min post-injection

Question: Which results are given for CCOC(=O)[C@H](N)CS [D-CYSee, D-Cysteine ethyl ester]?
Answer: total ventilatory responses recorded over the 30 min post-injection period (% baseline), comparison of efficacy [1]: more efficacious that L-CYSee/L-CYSme; ventilatory depressant effects of morphine incl. tidal volume/inspiratory time (Vt/Ti) ([2]; bolus 500 μmol/kg i.v. (D-CYSee 2×500 μmol/kg) after morphine 10 mg/kg i.v., conscious rats, Example 1): sustained reversal; deleterious actions of morphine on ABG chemistry and A-a gradient (freely moving rats [3]): sustained reversal; decay of morphine analgesia (conscious rats): decayed more quickly; initial level of analgesia (paw withdrawal latency) elicited by morphine (conscious rats): did not affect

Question: Which “Frequency: Drug - entire 75 min, % change” value ([2]; rat, in vivo) does the source give for N[C@H](CSSC[C@@H](N)C(=O)O)C(=O)O [D-Cystine, D-cystine] here?
Answer: +4.5 ± 3.3%

Question: And the “Frequency: Drug - last 15 min, % change” value ([2]; rat, in vivo)?
Answer: +14.3 ± 2.8*^,† %

Question: And the “Frequency: Drug maximum, % change” value ([2]; rat, in vivo)?
Answer: −1.2 ± 2.1%

Question: And the “Minute Ventilation: Drug - entire 75 min, % change” value ([2]; rat, in vivo)?
Answer: −19 ± 5 %

Question: What about the “Minute Ventilation: Drug - last 15 min, % change” value ([2]; rat, in vivo) of the same molecule?
Answer: −2 ± 4*^,† %

Question: What about the “Minute Ventilation: Drug maximum, % change” value ([2]; rat, in vivo) of the same molecule?
Answer: −4.4 ± 2.5%

Question: And the “Tidal Volume: Drug - entire 75 min, % change” value ([2]; rat, in vivo)?
Answer: −22 ± 4 %

Question: What about the “Tidal Volume: Drug - last 15 min, % change” value ([2]; rat, in vivo) of the same molecule?
Answer: −12 ± 2*^,† %

Question: What about the “Tidal Volume: Drug maximum, % change” value ([2]; rat, in vivo) of the same molecule?
Answer: +3.4 ± 2.2%

Question: What about the “immediate effects on Freq, TV or MV” value ([2]; rat, in vivo) of the same molecule?
Answer: did not elicit immediate effects

Question: What about the “return of Freq, TV and MV toward pre-morphine levels versus vehicle-treated rats” value ([2]; rat, in vivo) of the same molecule?
Answer: returned toward pre-morphine levels more quickly

Question: And the “deleterious actions of morphine on ABG chemistry and A-a gradient” value (freely moving rats [3])?
Answer: minor delayed effects

Question: And the “changes in ABG chemistry (pH, pCO2, pO2 and sO2)” value (freely moving rats [3]; freely moving rats, morphine 10 mg/kg IV, then drug 500 μmol/kg IV 15 min later, FIG. 18)?
Answer: returned toward pre-injection levels faster

Question: What about the “changes in A-a gradient” value (freely moving rats [3]; freely moving rats, morphine 10 mg/kg IV, then drug 500 μmol/kg IV 15 min later, FIG. 19) of the same molecule?
Answer: returned toward pre-injection levels

Question: And the “Tail-Flick latency” value (freely moving rats [4]; 10 min-post drug (time −10 min), D-cystine 500 μmol/kg IV alone)?
Answer: 3.3 ± 0.4 s

Question: What about the “Tail-Flick latency” value (freely moving rats [4]; 20 min post-drug (time 0), D-cystine 500 μmol/kg IV alone) of the same molecule?
Answer: 3.2 ± 0.4 s

Question: What about the “antinociceptive effects of morphine (TFL) in drug-pretreated rats” value (freely moving rats [4]; drug 500 μmol/kg IV 20 min before morphine 10 mg/kg IV) of the same molecule?
Answer: also enhanced

Question: And the “Tail-Flick latency” value (freely moving rats [4]; post-morphine - 30 min, D-cystine 500 μmol/kg IV pretreated, morphine 10 mg/kg IV)?
Answer: 12 ± 0.0 s

Question: What about the “Tail-Flick latency” value (freely moving rats [4]; post-morphine - 60 min, D-cystine 500 μmol/kg IV pretreated, morphine 10 mg/kg IV) of the same molecule?
Answer: 12 ± 0.0 s

Question: And the “Tail-Flick latency” value (freely moving rats [4]; post-morphine - 90 min, D-cystine 500 μmol/kg IV pretreated, morphine 10 mg/kg IV)?
Answer: 12 ± 0.0 s

Question: What about the “Tail-Flick latency (sec)” value (freely moving rats [4]; post-morphine - 120 min, D-cystine 500 μmol/kg IV pretreated, morphine 10 mg/kg IV) of the same molecule?
Answer: 12 ± 0.0*^,† sec

Question: And the “Tail-Flick latency (sec)” value (freely moving rats [4]; post-morphine - 180 min, D-cystine 500 μmol/kg IV pretreated, morphine 10 mg/kg IV)?
Answer: 10.7 ± 0.3*^,† sec

Question: What about the “Tail-Flick latency (sec)” value (freely moving rats [4]; post-morphine - 210 min, D-cystine 500 μmol/kg IV pretreated, morphine 10 mg/kg IV) of the same molecule?
Answer: 7.4 ± 0.3*^,† sec

Question: And the “Tail-Flick latency” value (freely moving rats [4]; post-morphine - 240 min, D-cystine 500 μmol/kg IV pretreated, morphine 10 mg/kg IV)?
Answer: 5.0 ± 0.3 s

Question: And the “Tail-Flick latency” value (freely moving rats [4]; post-morphine - 360 min, D-cystine 500 μmol/kg IV pretreated, morphine 10 mg/kg IV)?
Answer: 3.5 ± 0.3 s

Question: How did the “deleterious actions of morphine on ABG chemistry and A-a gradient” value (freely moving rats [3]) turn out when N[C@H](CS)C(=O)O [D-cysteine] was run?
Answer: minimal effects

Question: For CCOC(=O)[C@@H](N)CS [L-CYSee, L-Cysteine ethyl ester], which “peak inspiratory flow and respiratory drive (Vt/Ti) during infusion” value ([2]; prior infusion 14.3 μmol/kg/min, total 500 μmol/kg i.v. over 35 min, conscious rats) is on record?
Answer: dramatically increased

Question: And the “subsequent effects of a bolus injection of morphine on ventilation” value ([2]; prior infusion total 500 μmol/kg i.v. over 35 min, morphine 10 mg/kg i.v.)?
Answer: markedly blunted

Question: What about the “effect of a subsequent injection after infusion and morphine” value ([2]; subsequent injection 250 μmol/kg/min as printed, morphine 10 mg/kg i.v.) of the same molecule?
Answer: prompt beneficial effects

Question: And the “deleterious effects of morphine on ABG chemistry and A-a gradient after prior infusion” value (freely moving rats [3])?
Answer: virtually eliminated

Question: And the “cardiac output and heart rate” value (rats)?
Answer: decreases

Question: What about the “hemodynamic responses (FIG. 11)” value (rats) of the same molecule?
Answer: minimal responses

Question: And the “mean arterial blood pressure (MAP)” value (rats)?
Answer: substantial transient decreases

Question: And the total peripheral resistance (rats)?
Answer: no changes

Question: COC(=O)[C@@H](N)CS [L-CYSme, L-cysteine methylester] was tested. Which “total ventilatory responses recorded over the 30 min post-injection period (% baseline), comparison of efficacy” value [1] did it give?
Answer: as efficacious as L-CYSee

Question: How did the “total ventilatory responses recorded over the 30 min post-injection period (% baseline), comparison of efficacy” value [1] turn out when COC(=O)[C@H](CS)NC(C)=O [L-NACme, L-N-acetylcysteine methylester] was run?
Answer: comparatively minor effects

Question: What about the “effects on morphine-induced changes in Freq, TV and MV” value ([2]; 2×500 μmol/kg, IV, morphine 10 mg/kg) of the same molecule?
Answer: only minor effects

Question: And the “Frequency: Drug - entire 75 min, % change” value [2, 7]?
Answer: +11 ± 2 %

Question: And the “Minute Ventilation: Drug - entire 75 min, % change” value [2, 7]?
Answer: −19 ± 4 %

Question: And the “Tidal Volume: Drug - entire 75 min, % change” value [2, 7]?
Answer: −22 ± 3 %

Question: Which results are given for CCOC(=O)[C@@H](N)CO [L-SERee, L-serine ethyl ester]?
Answer: total ventilatory responses recorded over the 30 min post-injection period (% baseline), comparison of efficacy [1]: minimally active; deleterious effects of morphine on ABG chemistry and A-a gradient after prior infusion (freely moving rats [3]): without effect

Question: For COC(=O)[C@@H](N)CSSC[C@H](N)C(=O)OC [L-cystine diME], which “effect on the antinociception actions of morphine (Hargreaves)” value (adult male rats [5]; [8]) is on record?
Answer: neither thiolester affected

Question: What about the “thermal nociception (Hargreaves Testing) when given alone” value (adult male rats [5]; [9]) of the same molecule?
Answer: neither d-cystine diME nor L-cystine diME affected

Question: And the “Hargreaves hind-paw withdrawal latency” value (adult male rats [5]; L-cystine diME plus morphine)?
Answer: 18.5 ± 1.1 s

Question: What about the “Hargreaves hind-paw withdrawal latency” value (adult male rats [5]; given alone, L-cystine diME 500 μmol/kg IV, morphine sulfate 1 mg/kg IV) of the same molecule?
Answer: 12.0 ± 0.5 s

Question: What about the “Hargreaves hind-paw withdrawal latency” value (adult male rats [5]; morphine+L-cystine diME) of the same molecule?
Answer: 17.2 ± 0.9 s

Question: What about the “effect on the antinociception actions of morphine (Von Frey)” value (adult male rats [6]; [8]) of the same molecule?
Answer: neither thiolester affected

Question: And the “mechanical allodynia (Von Frey Testing) when given alone” value (adult male rats [6]; [9])?
Answer: neither d-cystine diME nor L-cystine diME affected

Question: What about the “force needed to initiate hind-paw withdrawal (Von Frey)” value (from here on “force needed”) (adult male rats [6]; L-Cystine diME+morphine) of the same molecule?
Answer: 87.3 ± 4.2 g

Question: And the “force needed” value (adult male rats [6]; given alone, L-cystine diME 500 μmol/kg IV, morphine 1 mg/kg IV)?
Answer: 51.0 ± 7.6 g

Question: What about the “force needed” value (adult male rats [6]; morphine+L-Cystine diME) of the same molecule?
Answer: 86.9 ± 5.2 g

— patent US12083089B2, “Compositions and methods for stimulating ventilatory and/or respiratory drive” (CASE WESTERN RESERVE UNIVERSITY, priority 2015, dated 2024)
